Data as given in PMC9105604, “Parathyroid Hormone-Related Peptide and Its Analog, Abaloparatide, Attenuate Lethal Myocardial Ischemia-Reperfusion Injury” (Journal of Clinical Medicine, 2022).

How the values were obtained:
HL-1 cardiomyocytes [1] = assay: MTT viability of HL-1 cardiomyocytes with or without MEK-ERK inhibitor PD98059 (Protocol 2B)
Description: (§2) The primary endpoint for Protocols 1A–C was HL-1 cell viability assessed using the MTT (3-(4,5-dimethythiazol-2-yl)-2,5-diphenyl tetrazolium bromide) assay (Sigma Aldrich, St. Louis, MO, USA). This well-established colorimetric method is based on the reduction of the soluble tetrazolium salt to purple formazan crystals by viable, metabolically active cells and quantified by measuring absorbance at 570 nm [25].
At 24 h after the onset of treatment, cells underwent either 2 h of SI + 24 h reoxygenation or a time-matched period of normoxia (n = 2 independent replicates per group). At 24 h following relief of SI, cell viability was quantified using the MTT assay as described in Protocol 1.

HL-1 cardiomyocytes [2] = assay: MTT viability of HL-1 cardiomyocytes, simulated ischemia-reoxygenation or normoxia (Protocol 1); format: cell-based
Description: Before initiating experiments, HL-1 cells were grown to ~80% confluence in 95% room air/5% CO2 at 37 °C in Claycomb medium supplemented with fetal bovine serum (10%), L-glutamine (2 mM), norepinephrine (0.1 mM), penicillin (100 U/mL) and streptomycin (100 µg/mL) [21, 22].
At 24 h after the onset of treatment, cells were subjected to 2 h of simulated ischemia (SI) + 24 h reoxygenation. During SI, Claycomb medium containing drug/placebo was replaced with drug-free hypoxia buffer at pH 6.6 (composed of NaCl (125 nM), KCl (8 mM), KH2PO4 (1.2 mM),1.25 mM MgSO4 (1.25 mM), CaCl2 (1.2 mM), NaHCO3 (6.25 mM), HEPES (20 mM), glucose (5.5 mM), 2-deoxy-D-glucose (20 mM), Na-lactate (5 mM): all ingredients from Sigma Aldrich, St. Louis, MO, USA) and the culture plates were sealed in a hermetic chamber with GasPak EZ Gas Generating Sachets (BD Biosciences, San Jose, CA, USA). Reoxygenation was achieved by removing the plates from the sealed chamber and exchanging the hypoxia buffer with serum-free Claycomb medium [21, 22]. Additional time- and treatment-matched normoxic cultures served as controls (n = 4 independent replicates per group).
as §2

phospho-ERK = assay: Immunoblot of phospho-ERK in HL-1 cells after simulated ischemia-reperfusion (Protocol 2A); format: cell-based; conditions: 10 nM, 24 h pretreatment, 2 h SI + 10 min reoxygenation; n = 3; vehicle 0.33 ± 0.09
Description: (§1) At 10 min post-reoxygenation, cells were harvested and lysed in RIPA buffer containing 2 protease and phosphatase inhibitors. The lysates were centrifuged at 14,000× g for 15 min, and the resultant supernatant was collected and probed for the expression of ERK (total and phosphorylated: antibodies from Cell Signaling Technology Inc., Danvers, MA, USA), PI3 kinase/Akt (total and phosphorylated: Cell Signaling Technology Inc., Danvers, MA, USA) and GAPDH (Sigma Aldrich Inc., St. Louis, MO, USA) using standard methods. Immunoreactive bands were identified by incubation with horseradish peroxidase (HRP)-conjugated secondary antibody, visualized using x-ray film, and quantified using the NIH ImageJ software.

[3] = in vivo, cited from earlier work
phospho-Akt = assay: Immunoblot of phospho-Akt in HL-1 cells after simulated ischemia-reperfusion (Protocol 2A); format: cell-based; conditions: 10 nM, 24 h pretreatment, 2 h SI + 10 min reoxygenation; n = 3; vehicle 0.14 ± 0.01
Description: as §1

Compound | HL-1 cell viability under normoxic conditions, alone or in combination (Protocol 2B) (HL-1 cardiomyocytes [1]; peptides 10 nM, PD98059 5 µM, 24 h, normoxia, n = 2, no statistics) | Concentration dependence of % viability / magnitude of protection after SI-reoxygenation (HL-1 cardiomyocytes [2]; 24 h pretreatment, 2 h SI + 24 h reoxygenation, Protocols 1A, 1B, confirmed in 1C) | HL-1 cell viability after SI-reoxygenation (HL-1 cardiomyocytes [2]; 24 h pretreatment, then 2 h simulated ischemia + 24 h reoxygenation, PTHrP(1-36) 10, 100 nM (n = 4), abaloparatide 0.1-100 nM (n = 5), versus vehicle) | HL-1 cell viability under normoxic conditions (HL-1 cardiomyocytes [2]; time- and treatment-matched normoxic cultures) | phospho-ERK expression (normalized to total ERK) (phospho-ERK) | Hemodynamic effects in post-menopausal women with osteoporosis ([3]; sc) | Incidence of adverse cardiac events in treated subjects [3] | SI-reoxygenation-induced cell death (Protocol 2B) (HL-1 cardiomyocytes [1]; 10 nM, 24 h pretreatment, 2 h SI + 24 h reoxygenation, n = 2, versus vehicle) | Protective effect on HL-1 viability with co-administration of PD98059 (HL-1 cardiomyocytes [1]; peptide 10 nM + PD98059 5 µM, 24 h, then 2 h SI + 24 h reoxygenation, n = 2) | phospho-Akt expression (normalized to GAPDH) (phospho-Akt)
COc1cccc(-c2cc(=O)c3ccccc3o2)c1N [PD98059] | neither PTHrP(1-36), abaloparatide, or PD98059, given alone or in combination, had an effect | – | – | – | – | – | – | – | – | –
abaloparatide | – | modestly but significantly greater in cells incubated with 10 nM | significantly better maintained | no effect | modest but significant increase | modest and transient increases in heart rate and decreases in supine blood pressure | no evidence of an increase | attenuated | abrogated | better preservation
